Laboratory results taken from PubChem BioAssay AID2060897 (Molecular Pharmacology Branch, DTP, NCI, 2025).

Tested on: 966289-007-R4-J1-PDC complex spheroid viability
Assay: Anticancer human tumor 966289-007-R4-J1-PDC patient-derived pancreatic adenocarcinoma cell line growth inhibition [RAS]
Conditions: for IC50: curve of first compound; for viability, T/C: stronger effect = lower value
Procedure, shortened: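 Agents were tested in combination matrices in half-log decrements from a top concentration at or near clinical Cmax (10 microM if undetermined). Targets were multi-cell spheroids of tumour lines plus HUVEC and MSC stromal cells.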
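Also: spheroids exposed to agents for one week before readout.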
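For viability, T/C in this document: percent viability relative to DMSO vehicle control wells as 100%.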

Molecule `NC1c2ccccc2OC12CCN(c1cnc3c(N4CCCc5ncccc54)n[nH]c3n1)CC2` (centres undefined) + C=CC(=O)N1CCN(c2nc(OCC3CCCN3C)nc3c(F)c(-c4nc(N)cc(C)c4C(F)(F)F)c(Cl)cc23)C(C)C1 has an IC50 (second compound 0.00316 µM) of over 10000 nM, an IC50 (second compound 0.01 µM) of over 10000 nM and an IC50 (second compound 0.0316 µM) of over 10000 nM. The IC50 (second compound 0.1 µM) was over 10000 nM, the IC50 (second compound 0.316 µM) was over 10000 nM and the IC50 (second compound 1 µM) was over 10000 nM. It also gave a viability, T/C (second compound 0.00316 µM, first compound 0.0316 µM) of 117%, a viability, T/C (second compound 0.00316 µM, first compound 0.1 µM) of 90.1% and a viability, T/C (second compound 0.00316 µM, first compound 0.316 µM) of 126%. The viability, T/C (second compound 0.00316 µM, first compound 1 µM) was 102%, the viability, T/C (second compound 0.00316 µM, first compound 3.16 µM) was 113% and the viability, T/C (second compound 0.00316 µM, first compound 10 µM) was 103%. The viability, T/C (second compound 0.01 µM, first compound 0.0316 µM) was 113%, the viability, T/C (second compound 0.01 µM, first compound 0.1 µM) was 104% and the viability, T/C (second compound 0.01 µM, first compound 0.316 µM) was 104%. It also gave a viability, T/C (second compound 0.01 µM, first compound 1 µM) of 122%, a viability, T/C (second compound 0.01 µM, first compound 3.16 µM) of 107% and a viability, T/C (second compound 0.01 µM, first compound 10 µM) of 118%. For the same molecule, the viability, T/C (second compound 0.0316 µM, first compound 0.0316 µM) was 113%, the viability, T/C (second compound 0.0316 µM, first compound 0.1 µM) was 103% and the viability, T/C (second compound 0.0316 µM, first compound 0.316 µM) was 133%. It also gave a viability, T/C (second compound 0.0316 µM, first compound 1 µM) of 113%, a viability, T/C (second compound 0.0316 µM, first compound 3.16 µM) of 126% and a viability, T/C (second compound 0.0316 µM, first compound 10 µM) of 119%. It also gave a viability, T/C (second compound 0.1 µM, first compound 0.0316 µM) of 101%, a viability, T/C (second compound 0.1 µM, first compound 0.1 µM) of 103% and a viability, T/C (second compound 0.1 µM, first compound 0.316 µM) of 94.2%. The viability, T/C (second compound 0.1 µM, first compound 1 µM) was 105%, the viability, T/C (second compound 0.1 µM, first compound 3.16 µM) was 119% and the viability, T/C (second compound 0.1 µM, first compound 10 µM) was 107%. It also gave a viability, T/C (second compound 0.316 µM, first compound 0.0316 µM) of 109%, a viability, T/C (second compound 0.316 µM, first compound 0.1 µM) of 91.4% and a viability, T/C (second compound 0.316 µM, first compound 0.316 µM) of 107%. It also gave a viability, T/C (second compound 0.316 µM, first compound 1 µM) of 120%, a viability, T/C (second compound 0.316 µM, first compound 3.16 µM) of 102% and a viability, T/C (second compound 0.316 µM, first compound 10 µM) of 106%. For the same molecule, the viability, T/C (second compound 1 µM, first compound 0.0316 µM) was 105%, the viability, T/C (second compound 1 µM, first compound 0.1 µM) was 114% and the viability, T/C (second compound 1 µM, first compound 0.316 µM) was 123%. It also gave a viability, T/C (second compound 1 µM, first compound 1 µM) of 113%, a viability, T/C (second compound 1 µM, first compound 3.16 µM) of 116% and a viability, T/C (second compound 1 µM, first compound 10 µM) of 124%.
`Nc1ccn(C2OC(CO)C(O)C2(F)F)c(=O)n1` (centres undefined) + CCn1c(-c2cccnc2C(C)OC)c2c3cc(ccc31)N1CCOC(CC(NC(=O)C(C(C)C)N(C)C(=O)C3(F)CCN(C(=O)C#CC(C)(C)N(C)C)CC3)C(=O)N3CCCC(N3)C(=O)OCC(C)(C)C2)C1 showed an IC50 (second compound 0.000949 µM) of 7.01 nM, an IC50 (second compound 0.003 µM) of 5.6 nM and an IC50 (second compound 0.00949 µM) of 4.48 nM. It also gave an IC50 (second compound 0.03 µM) of 4.23 nM, an IC50 (second compound 0.0949 µM) of 4.66 nM and an IC50 (second compound 0.3 µM) of 5.27 nM. The viability, T/C (second compound 0.000949 µM, first compound 0.00316 µM) was 119%, the viability, T/C (second compound 0.000949 µM, first compound 0.01 µM) was 18.9% and the viability, T/C (second compound 0.000949 µM, first compound 0.0316 µM) was 1.45%. The viability, T/C (second compound 0.000949 µM, first compound 0.1 µM) was 0.78%, the viability, T/C (second compound 0.000949 µM, first compound 0.316 µM) was 0.73% and the viability, T/C (second compound 0.000949 µM, first compound 1 µM) was 0.9%. For the same molecule, the viability, T/C (second compound 0.003 µM, first compound 0.00316 µM) was 87.3%, the viability, T/C (second compound 0.003 µM, first compound 0.01 µM) was 12.3% and the viability, T/C (second compound 0.003 µM, first compound 0.0316 µM) was 1.03%. It also gave a viability, T/C (second compound 0.003 µM, first compound 0.1 µM) of 0.84%, a viability, T/C (second compound 0.003 µM, first compound 0.316 µM) of 1.07% and a viability, T/C (second compound 0.003 µM, first compound 1 µM) of 1.18%. It also gave a viability, T/C (second compound 0.00949 µM, first compound 0.00316 µM) of 67.6%, a viability, T/C (second compound 0.00949 µM, first compound 0.01 µM) of 9.69% and a viability, T/C (second compound 0.00949 µM, first compound 0.0316 µM) of 0.94%. For the same molecule, the viability, T/C (second compound 0.00949 µM, first compound 0.1 µM) was 0.85%, the viability, T/C (second compound 0.00949 µM, first compound 0.316 µM) was 0.87% and the viability, T/C (second compound 0.00949 µM, first compound 1 µM) was 1.1%. It also gave a viability, T/C (second compound 0.03 µM, first compound 0.00316 µM) of 64%, a viability, T/C (second compound 0.03 µM, first compound 0.01 µM) of 8.78% and a viability, T/C (second compound 0.03 µM, first compound 0.0316 µM) of 0.83%. The viability, T/C (second compound 0.03 µM, first compound 0.1 µM) was 1.03%, the viability, T/C (second compound 0.03 µM, first compound 0.316 µM) was 1.23% and the viability, T/C (second compound 0.03 µM, first compound 1 µM) was 0.98%. The viability, T/C (second compound 0.0949 µM, first compound 0.00316 µM) was 72.2%, the viability, T/C (second compound 0.0949 µM, first compound 0.01 µM) was 6.25% and the viability, T/C (second compound 0.0949 µM, first compound 0.0316 µM) was 0.85%. The viability, T/C (second compound 0.0949 µM, first compound 0.1 µM) was 0.82%, the viability, T/C (second compound 0.0949 µM, first compound 0.316 µM) was 1.11% and the viability, T/C (second compound 0.0949 µM, first compound 1 µM) was 1.25%. For the same molecule, the viability, T/C (second compound 0.3 µM, first compound 0.00316 µM) was 86.9%, the viability, T/C (second compound 0.3 µM, first compound 0.01 µM) was 3.9% and the viability, T/C (second compound 0.3 µM, first compound 0.0316 µM) was 0.92%. The viability, T/C (second compound 0.3 µM, first compound 0.1 µM) was 0.98%, the viability, T/C (second compound 0.3 µM, first compound 0.316 µM) was 0.91% and the viability, T/C (second compound 0.3 µM, first compound 1 µM) was 1.22%.
